Patent US20040146482A1, “Cosmetic and/or pharmaceutical preparations containing an extract of pterocarpus marsupium” (priority 2001, published 2004)

System: human keratinocytes
Assay: Cell protecting effect against UV-B in keratinocytes cultivated in vitro
Format: cell-based
Details: UV-B 50 mJ/cm2, concentration not given
Text: Background: UV-B rays cause inflammation (erythema, edema) by activating an enzyme, namely phospholipase A2 or PLA2, which removes arachidonic acid from the phospholipids of the cell membrane. Arachidonic acid is the precursor of the prostaglandins which cause inflammation and cell membrane damage; the prostaglandins E2 (=PGE2) are formed by cyclooxygenase. A UV-challenged cell produces another inflammation mediator, namely interleucine-1-alpha (1′ILα), which is capable of inducing the secretion of prostaglandins.
Method: The effect of UV-B radiation was investigated in vitro in keratinocytes by determining the release of the cytoplasm enzyme LDH (lactate dehydrogenase) and the(1′ILα) content.
To carry out the tests, a defined medium containing fetal calf serum was inoculated with the keratinocytes and Trichodyn® was added 72 hours after the inoculation.
The keratinocytes were then exposed to a dose of UV-B (50 mJ/cm^2-tubes: DUKE GL40E).
After incubation for another day at 37° C./5% CO2, the LDH content in the supernatant was determined. The LDH (lactate dehydrogenase) content was determined by an enzyme reaction (kit used to determine LDH levels from Roche). In addition , the (1′ILα) content was determined by the ELISA test. The number of adhering keratinocytes was determined (after trypsin treatment) with a particle counter.

CC(=O)Oc1ccccc1C(=O)O [aspirin]
(1′ILα) content (UV-B alone = 100): 69%
Content of released LDH (UV-B alone = 100): 66%
No. of keratinocytes (control without UV-B = 100, UV-B alone 17): 15%
